Laboratory results reported in patent US20110071204A1, “PERCUTANEOUS ABSORPTION PREPARATION” (KYORIN PHARMACEUTICAL CO., LTD., priority 2005, published 2011).

Legend:
[1] = system: airway contraction induced by methacholine; assay: Airway contraction measuring method (Konzett & Rossler), methacholine-induced; format: in vivo; conditions: guinea pig
Procedure: Male Std:Hartley guinea pigs (Japan SLC Inc., week of age at the time of use: 6 weeks of age, from 340.6 to 488.0 g in body weight) were anesthetized with urethane, and a canula was inserted into the trachea. The trachea canula was connected to a quantitative artificial ventilator, and under artificial respiration, a catheter was indwelled in the left jugular vein. Measurement of the airway contraction was carried out by the Konzett & Rossler method. Guinea pigs were subjected to artificial respiration at a ventilation of 4 ml/animal and a ventilation frequency of 70 times/minute. Changes in the ventilation pressure were measured by a transducer (UGO BASILE, BRONCHOSPASM TRANSDUCER 7020) connected to the sub-bypass of the trachea canula. By inserting a catheter into the jugular vein, imidafenacin was administered by continuous intravenous infusion (100 μl/kg/min). After 75 minutes of the start of administration of the agent liquid, methacholine (10 μg/kg) was intravenously administered to induce airway contraction. The airway contraction inhibitory activity was evaluated using peak height of the airway contraction induced by methacholine as the index.
In this connection, the blood concentration measurement was carried out by LC/MS/MS using blood plasma.

[2] = system: bladder contraction induced by methacholine; format: in vivo; conditions: guinea pig
Text: Male Std:Hartley guinea pigs (Japan SLC Inc., week of age at the time of use: 6 weeks of age, from 340.6 to 488.0 g in body weight) were anesthetized with urethane. The abdominal region was subjected to median incision, and then both sides of ureters were ligated in order to prevent inflow of urine from the kidney to the bladder. After ligation of the bladder cervix, a catheter for intravesical pressure measurement use was inserted from the bladder apex and fixed by ligation. Thereafter, in order to measure intravesical pressure, 1 ml of physiological saline was injected into the bladder. Next, a catheter was indwelled in the left jugular vein. The intravesical pressure was measured via an amplifier for strain pressure use (Nihon Kohden Corporation, CARRIER ANPLIFIER AP-601G) by connecting the catheter for intravesical pressure measuring use to a pressure transducer (Nihon Kohden Corporation, LIFE KIT DX-100). By inserting a catheter into the jugular vein, imidafenacin was administered by continuous intravenous infusion (100 μl/kg/min). After 75 minutes of the commencement of administration of the agent liquid, methacholine (10 μg/kg) was intravenously administered to induce bladder contraction. The bladder contraction inhibitory activity was evaluated using peak height of the bladder contraction induced by methacholine as the index. […]

[3] = continuous intravenous infusion, methacholine 10 μg/kg after 75 minutes

- blood concentration at around the ID50 value (airway contraction) ([1]; plasma, LC/MS/MS): about 1 ng/ml
- blood concentration at around the ID50 value (intravesical pressure) ([2]; male, Hartley, in vivo): about 1 ng/ml
Compound: Cc1nccn1CCC(C(N)=O)(c1ccccc1)c1ccccc1 [imidafenacin, 4-(2-methyl-1-imidazolyl)-2,2-diphenylbutylamide]
- ID50, airway contraction inhibitory activity [1, 3]: 0.061 µg/kg/min
- ID50, bladder contraction inhibitory activity [2, 3]: 0.064 µg/kg/min
